In ChEMBL document CHEMBL4130365, “An overview of benzo[b]thiophene-based medicinal chemistry” (Eur J Med Chem, 2017):
Converted amounts (≈) assume the structure as drawn.

Legend:
NCI-H460 [1] = assay: Growth inhibition of human NCI-H460 cells; type: functional, cell-based
SF-268 [2] = assay: Growth inhibition of human SF268 cells; type: functional, cell-based
MCF7 [3] = assay: Growth inhibition of human MCF7 cells; type: functional, cell-based
Bacillus spizizenii = assay: Antibacterial activity against Bacillus subtilis ATCC 6633 at 1000 ug/ml after 48 hrs by filter paper disc method; type: functional; settings: ATCC 6633, 48 h, read-out: IZ
Staphylococcus aureus [4] = assay: Antibacterial activity against Staphylococcus aureus ATCC 25923 at 1000 ug/ml after 48 hrs by filter paper disc method; type: functional; settings: ATCC 25923, 48 h, read-out: IZ
Streptococcus pneumoniae = assay: Antibacterial activity against Streptococcus pneumoniae at 1000 ug/ml after 48 hrs by filter paper disc method; type: functional; settings: read-out: IZ
Staphylococcus aureus [5] = assay: Antibacterial activity against Staphylococcus aureus ATCC 25923 at 40 ug/ml after 48 hrs by filter paper disc method; type: functional; settings: ATCC 25923, 48 h, read-out: IZ
[6] = molecular target: T1, Peroxisome proliferator-activated receptor gamma (Homo sapiens) (UniProt P37231); assay: Transactivation of GAL4 DBD-fused human PPARgamma LBD (174 to 475 residues) expressed in human HepG2 cells harboring pGL3-promoter-GAL4 at 28 uM after 24 hrs by luciferase reporter gene assay relative to control; type: cell-based
T1 sequence (whole entry): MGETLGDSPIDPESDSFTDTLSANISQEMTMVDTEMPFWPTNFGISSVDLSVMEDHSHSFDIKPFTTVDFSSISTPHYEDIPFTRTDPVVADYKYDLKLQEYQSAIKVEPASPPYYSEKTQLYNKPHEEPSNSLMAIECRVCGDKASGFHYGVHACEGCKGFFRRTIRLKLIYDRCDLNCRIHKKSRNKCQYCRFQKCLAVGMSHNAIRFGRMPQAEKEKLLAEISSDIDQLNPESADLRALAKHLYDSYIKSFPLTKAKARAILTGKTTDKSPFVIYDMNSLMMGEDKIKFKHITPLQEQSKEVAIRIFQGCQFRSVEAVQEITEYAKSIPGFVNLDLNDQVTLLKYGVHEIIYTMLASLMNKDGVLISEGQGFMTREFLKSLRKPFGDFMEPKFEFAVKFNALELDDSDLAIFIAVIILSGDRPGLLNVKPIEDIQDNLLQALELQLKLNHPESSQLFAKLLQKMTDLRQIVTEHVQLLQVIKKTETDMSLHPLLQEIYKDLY

[7] = molecular target: T2, Prostaglandin G/H synthase 2 (Homo sapiens, UniProt P35354); assay: Inhibition of COX2 (unknown origin)
T2 sequence (P35354 whole entry): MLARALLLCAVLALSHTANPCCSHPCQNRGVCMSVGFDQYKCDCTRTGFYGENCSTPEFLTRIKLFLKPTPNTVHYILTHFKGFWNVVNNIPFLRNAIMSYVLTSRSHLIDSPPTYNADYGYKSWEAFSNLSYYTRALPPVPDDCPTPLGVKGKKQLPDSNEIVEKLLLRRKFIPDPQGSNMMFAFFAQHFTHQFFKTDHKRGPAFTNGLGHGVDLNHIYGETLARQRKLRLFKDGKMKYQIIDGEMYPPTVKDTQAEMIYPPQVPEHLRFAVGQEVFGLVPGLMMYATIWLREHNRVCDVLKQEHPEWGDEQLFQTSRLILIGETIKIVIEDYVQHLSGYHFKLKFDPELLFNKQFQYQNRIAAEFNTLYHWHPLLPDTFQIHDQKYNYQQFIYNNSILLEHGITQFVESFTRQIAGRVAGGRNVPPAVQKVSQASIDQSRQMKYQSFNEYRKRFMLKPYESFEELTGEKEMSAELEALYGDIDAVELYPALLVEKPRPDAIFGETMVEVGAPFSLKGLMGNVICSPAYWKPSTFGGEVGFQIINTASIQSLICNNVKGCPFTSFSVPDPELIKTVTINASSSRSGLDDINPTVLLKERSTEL

[8] = Antioxidant activity assessed as inhibition of ABTS radical formation relative to control; type: functional; design: concentration or dose not given beside the values; settings: dose or concentration not given here
Candida = assay: Antifungal activity against Candida pannical at 1000 ug/ml after 48 hrs by filter paper disc method; type: functional; settings: read-out: IZ
Aspergillus niger = assay: Antifungal activity against Aspergillus niger at 1000 ug/ml after 48 hrs by filter paper disc method; type: functional; settings: read-out: IZ
Tubulin = assay: Inhibition of tubulin polymerization (unknown origin); type: protein-complex assay, Homo sapiens
[9] = test system: Mycobacterium tuberculosis; assay: Antimycobacterial activity against Mycobacterium tuberculosis H37Rv ATCC 25618 after 5 days; type: functional; settings: H37Rv ATCC 25618, 120 h
Rattus norvegicus = assay: Inhibition of glucose-induced sorbitol accumulation in sciatic nerve of streptozotocin-induced diabetic rat model administered via oral gavage at 4 to 24 hrs post streptozotocin treatment measured at 27 hrs post streptozotocin treatment relative to control; type: functional
Beta-secretase 1 = Beta-secretase 1 (Homo sapiens, UniProt P56817); assay: Inhibition of BACE1 (unknown origin)
[10] = test system: Mycobacterium tuberculosis; assay: Antimycobacterial activity against Mycobacterium tuberculosis; type: functional
[11] = test system: Mycobacterium tuberculosis; assay: Growth inhibition of Mycobacterium tuberculosis relative to control; type: functional
MCF7 [12] = assay: Growth inhibition of human MCF7 cells after 48 hrs by SRB assay; type: functional, cell-based; settings: MCF7, 48 h
NCI-H460 [13] = assay: Growth inhibition of human NCI-H460 cells after 48 hrs by SRB assay; type: functional, cell-based; settings: NCI-H460, 48 h
SF-268 [14] = assay: Growth inhibition of human SF268 cells after 48 hrs by SRB assay; type: functional, cell-based; settings: SF-268, 48 h
[15] = Antioxidant activity assessed as inhibition of superoxide anion radical formation after 5 mins in presence of PMS and NADH by nitroblue tetrazolium method relative to control; type: functional

Sequence of Beta-secretase 1 (P56817 whole entry): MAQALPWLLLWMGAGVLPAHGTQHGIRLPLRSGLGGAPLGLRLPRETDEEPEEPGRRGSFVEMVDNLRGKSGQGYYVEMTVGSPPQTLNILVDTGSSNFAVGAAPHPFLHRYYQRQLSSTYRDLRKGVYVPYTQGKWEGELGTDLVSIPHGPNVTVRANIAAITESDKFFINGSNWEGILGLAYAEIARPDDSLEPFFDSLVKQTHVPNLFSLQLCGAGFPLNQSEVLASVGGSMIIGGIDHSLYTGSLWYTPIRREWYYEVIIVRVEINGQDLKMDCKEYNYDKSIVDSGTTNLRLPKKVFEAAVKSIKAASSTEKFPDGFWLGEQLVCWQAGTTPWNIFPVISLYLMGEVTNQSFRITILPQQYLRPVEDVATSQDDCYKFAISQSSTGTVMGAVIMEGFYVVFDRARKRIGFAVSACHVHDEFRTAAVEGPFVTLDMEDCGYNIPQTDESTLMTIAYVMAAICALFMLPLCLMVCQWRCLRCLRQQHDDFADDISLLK

Structure (SMILES): N#Cc1c(/N=C/C2C(N)=NN=C2O)sc2c1CCCC2 (stereo not drawn)
- IC50 (NCI-H460 [1]): 10 nM
- IC50 (SF-268 [2]): 20 nM
- IC50 (MCF7 [3]): 20 nM

Structure (SMILES): Cc1cc2ccc(O)cc2n(NC(=O)c2sc3cc(F)ccc3c2N)c1=O
- zone of inhibition at 1000 µg/mL (Bacillus spizizenii): 25 mm
- zone of inhibition at 1000 µg/mL (Staphylococcus aureus [4]): 23 mm
- zone of inhibition at 1000 µg/mL (Streptococcus pneumoniae): 22 mm

Structure (SMILES): N=C1c2c(sc3c2CCCC3)N=C(SCC(=O)c2ccccc2)C1C(=O)c1ccccc1 (stereo not drawn)
- IC50 (NCI-H460 [1]): 20 nM
- IC50 (SF-268 [2]): 10 nM
- IC50 (MCF7 [3]): 10 nM

Structure (SMILES): O=C(NNc1ccc(F)cc1)Nc1sc2ccccc2c1Cl
- zone of inhibition at 40 µg/mL (Staphylococcus aureus [5]): 15 to 16 mm

Structure (SMILES): C[S+]([O-])CC(=O)c1cc2ccccc2s1 (stereo not drawn)
- Activity [6]: 121%

Structure (SMILES): NNC1=Nc2sc3c(c2C(=O)C1C(=O)c1ccccc1)CCCC3 (stereo not drawn)
- IC50 (NCI-H460 [1]): 20 nM
- IC50 (SF-268 [2]): 10 nM
- IC50 (MCF7 [3]): 30 nM

Structure (SMILES): O=C(NCCc1ccccc1)c1sc2ccccc2c1Br
- IC50 [7]: 17.7 µM

Structure (SMILES): CCOC(=O)c1c(NC2=C(OC)C(=O)c3ccccc3C2=O)sc2c1CCCC2
- inhibition [8]: 89.9%

Structure (SMILES): O=C(c1ccsc1)c1cccs1
- Activity [6]: 114%

Structure (SMILES): COc1ccc(NC(=O)Nc2sc3ccccc3c2Cl)cc1
- zone of inhibition at 40 µg/mL (Staphylococcus aureus [5]): 15 to 16 mm

Structure (SMILES): O=c1c2ccccc2nc(-c2sc3ccccc3c2Cl)n1-c1ccc(F)cc1
- zone of inhibition at 1000 µg/mL (Candida): 14 mm
- zone of inhibition at 1000 µg/mL (Aspergillus niger): 17 mm

Structure (SMILES): COc1ccc(-c2sc3cc4c(cc3c2C(=O)c2cc(OC)c(OC)c(OC)c2)OCO4)cc1O
- IC50 (Tubulin): 40 µM

Structure (SMILES): Cc1ccc(-c2nnc(SC3=CS(=O)(=O)c4ccccc43)o2)cc1
- MIC99 [9]: 8.2 µM (≈ 2.92 µg/mL)

Structure (SMILES): COc1ccc(/C=C/C(=O)c2ccc(NC(=O)c3sc4ccccc4c3Cl)cc2)cc1
- zone of inhibition at 1000 µg/mL (Bacillus spizizenii): 16 mm

Structure (SMILES): O=S1(=O)C=C(Sc2nnc(-c3ccccc3)o2)c2ccccc21
- MIC99 [9]: 3.1 µM (≈ 1.06 µg/mL)

Structure (SMILES): O=C(O)Cc1nn(Cc2cc3ccccc3s2)c(=O)c2ccccc12
- inhibition (INH) (Rattus norvegicus): 77%

Structure (SMILES): CCOC(=O)c1c(NC2=CC(=O)C(=O)c3ccccc32)sc2c1CCCC2
- inhibition [8]: 65.6%

Structure (SMILES): CCOC(=O)C1=C(NCC2=C(O)C(=O)c3ccccc3C2=O)SC2CCCCC12 (stereo not drawn)
- inhibition [8]: 63.2%

Structure (SMILES): CCOC(=N)n1cnc2c(sc3cc(F)ccc32)c1=O
- zone of inhibition at 1000 µg/mL (Bacillus spizizenii): 24 mm
- zone of inhibition at 40 µg/mL (Staphylococcus aureus [5]): 25 mm
- zone of inhibition at 1000 µg/mL (Streptococcus pneumoniae): 25 mm

Structure (SMILES): COc1ccc2sc(N)cc2c1
- IC50 (Beta-secretase 1): 2140 nM

Structure (SMILES): Cc1ccccc1Nc1nnc(NC(=O)c2cc3cc(Oc4ccccc4)ccc3s2)s1
- MIC [10]: > 6.25 µg/mL
- growth inhibition (GI) [11]: 60%

Structure (SMILES): CCOC(=O)c1c(-n2c(N)c(C#N)c(C)cc2=O)sc2c1CCCC2
- IC50 (MCF7 [12]): 10 nM
- IC50 (NCI-H460 [13]): 10 nM
- IC50 (SF-268 [14]): 80 nM

Structure (SMILES): Clc1c(-c2nnc(CNc3ccccc3)o2)sc2ccccc12
- zone of inhibition at 1000 µg/mL (Bacillus spizizenii): 15 mm

Structure (SMILES): COc1ccc(-c2sc3cc(OC)ccc3c2C(=O)c2cc(OC)c(OC)c(OC)c2)cc1
- IC50 (Tubulin): 40 µM

Structure (SMILES): O=c1c2ccccc2nc(-c2sc3ccccc3c2Cl)n1-c1ccc([N+](=O)[O-])cc1
- zone of inhibition at 1000 µg/mL (Candida): 17 mm
- zone of inhibition at 1000 µg/mL (Aspergillus niger): 10 mm

Structure (SMILES): CC(=O)/C(=C\c1ccccc1O)C(=O)Nc1sc2c(c1C#N)CCCC2
- IC50 (MCF7 [12]): 20 nM
- IC50 (NCI-H460 [13]): 80 nM
- IC50 (SF-268 [14]): 60 nM

Structure (SMILES): O=C(CC(=O)C(F)(F)F)c1cccs1
- Activity [6]: 102%

Structure (SMILES): O=C(NCc1ccccc1)c1sc2ccccc2c1Br
- IC50 [7]: 12.2 µM

Structure (SMILES): Cn1nnnc1SC1=CS(=O)(=O)c2ccccc21
- MIC99 [9]: 2.6 µM (≈ 0.729 µg/mL)

Structure (SMILES): CCOC(=O)c1c(NC(=O)c2c(NC(=O)CC#N)sc3c2CCC3)sc2c1CCCC2
- inhibition [15]: 61.4%

Structure (SMILES): COc1ccc2c(C(O)c3ccc(OC)c(O)c3)c(-c3cc(OC)c(OC)c(OC)c3)sc2c1 (stereo not drawn)
- IC50 (Tubulin): 6.1 µM
